We go through twelve compounds from US20260131016A1, “NOVEL AURISTATIN ANALOGS AND IMMUNOCONJUGATES THEREOF” (ADCENTRX THERAPEUTICS INC., priority 2021, published 2026).

One may read the IC50 as the concentration needed to halve the response being measured.

One experiment relates to T47D cells. As to the kind of experiment: Cell viability (Cell Titer Glo 2.0) in T47D cells, 120 hours. It counts as cell-based. The procedure:
(§1) HCC1954 breast ductal carcinoma and T47D cells (ATCC, Manassas, VA, USA) were seeded into 384-well white-walled culture plates and allowed to adhere for 2-4 hours. Cells were then treated at least in duplicate by addition of 5-fold serially diluted test articles prepared at 2× final concentration and incubated at 37° C. for 120 hours. Cell viability following treatment was determined by Cell Titer Glo 2.0 Assay (Promega, Madison, WI, USA) and normalized to non-treated controls. Dose-response relationships were analyzed using GraphPad Prism (La Jolla, CA, USA), and IC50 values were derived from non-linear regression analyses using a 4-parameter logistic equation.
(In general: ATP-based viability assays read luminescence as a measure of living cells.)

For experiment [1], the system named is HCC1954 breast ductal carcinoma. Briefly: Cell viability (Cell Titer Glo 2.0) in HCC1954, 120 hours. Format: cell-based. Conditions: for potency compared to the 1,4-NH2 configuration of the P5 moiety in 19 and 26: HCC1954 and T47D assays. How it is done:
as §1

The mark [2] stands for this setting: N-methylated analogs 1,2-/1,3-/1,4-NH2, relative to the 1,3-NH2 analog (=1).
Where [3] appears, read: NCH3-amide compared to its NH-amide analog (=1).
[4] abbreviates: Homo sapiens, HCC1954, 120 h, read-out: IC50 (nM), in vitro potency in HCC1954.
Where [5] appears, read: Trastuzumab conjugate of the numbered linker-payload, HCC1954, read-out: ADC (Trastuzumab) IC50 in HCC1954 assay.

Each structure is given as a SMILES string. Read-outs that look alike come from different tables or passages of the source.

For the compound `CC[C@H](C)[C@@H]([C@@H](CC(=O)N1CCC[C@H]1[C@H](OC)[C@@H](C)C(=O)N(C)CCc1cccc(N)c1)OC)N(C)C(=O)[C@@H](NC(=O)[C@H](C(C)C)N(C)C)C(C)C` [Compound 1, (S)-N-((3R,4S,5S)-1-((S)-2-((1R,2R)-3-((3-aminophenethyl)(methyl)amino)-1-methoxy-2-methyl-3-oxopropyl)pyrrolidin-1-yl)-3-methoxy-5-methyl-1-oxoheptan-4-yl)-2-((S)-2-(dimethylamino)-3-methylbutanamido)-N,3-dimethylbutanamide], the results for the “IC50 (fold difference) T47D” value in the experiment on T47D cells (setting [2]) and with T47D cells (setting [3]) were 1 fold difference and 1.6 fold difference, respectively. Further, the “potency compared to the 1,4-NH2 configuration of the P5 moiety in 19 and 26” value in experiment [1] is on record as “more potent”. Besides, the IC50 in experiment [1] (setting [4]) was below 5 nM. For the same compound, the “IC50 (fold difference) HCC1954” value in experiment [1] (setting [2]) was 1 fold difference; in experiment [1] (setting [3]) it was 1.5 fold difference.
As to `CC[C@H](C)[C@@H]([C@@H](CC(=O)N1CCC[C@H]1[C@H](OC)[C@@H](C)C(=O)N(C)CCc1cccc(N)c1)OC)N(C)C(=O)[C@@H](NC(=O)[C@H](C)N(C)C)C(C)C` [Compound 2, (S)-N-((3R,4S,5S)-1-((S)-2-((1R,2R)-3-((3-aminophenethyl)(methyl)amino)-1-methoxy-2-methyl-3-oxopropyl)pyrrolidin-1-yl)-3-methoxy-5-methyl-1-oxoheptan-4-yl)-2-((S)-2-(dimethylamino)propanamido)-N,3-dimethylbutanamide], in the experiment on T47D cells (setting [2]), the “IC50 (fold difference) T47D” value was 1 fold difference. The “potency compared to the 1,4-NH2 configuration of the P5 moiety in 19 and 26” value in experiment [1] is listed as “more potent”. For the same compound, in experiment [1] (setting [4]), the IC50 was below 5 nM. For the same compound, the “IC50 (fold difference) HCC1954” value in experiment [1] (setting [2]) is given as 1 fold difference.
As to `CC[C@H](C)[C@@H]([C@@H](CC(=O)N1CCC[C@H]1[C@H](OC)[C@@H](C)C(=O)N(C)CCc1ccccc1N)OC)N(C)C(=O)[C@@H](NC(=O)[C@H](C(C)C)N(C)C)C(C)C` [Compound 14, (S)-N-((3R,4S,5S)-1-((S)-2-((1R,2R)-3-((2-aminophenethyl)(methyl)amino)-1-methoxy-2-methyl-3-oxopropyl)pyrrolidin-1-yl)-3-methoxy-5-methyl-1-oxoheptan-4-yl)-2-((S)-2-(dimethylamino)-3-methylbutanamido)-N,3-dimethylbutanamide], the “IC50 (fold difference) T47D” value with T47D cells (setting [2]) is on record as 1.3 fold difference; with T47D cells (setting [3]) it was 1.8 fold difference. Further, the “potency compared to the 1,4-NH2 configuration of the P5 moiety in 19 and 26” value in experiment [1] is “more potent”. Moreover, in experiment [1] (setting [4]), the IC50 is below 5 nM. Besides, the “IC50 (fold difference) HCC1954” value came to 0.8 fold difference in experiment [1] (setting [2]) and 2.0 fold difference in experiment [1] (setting [3]).
Turning to `CC[C@H](C)[C@@H]([C@@H](CC(=O)N1CCC[C@H]1[C@H](OC)[C@@H](C)C(=O)N(C)CCc1ccccc1N)OC)N(C)C(=O)[C@@H](NC(=O)[C@H](C)N(C)C)C(C)C` [Compound 16, (S)-N-((3R,4S,5S)-1-((S)-2-((1R,2R)-3-((2-aminophenethyl)(methyl)amino)-1-methoxy-2-methyl-3-oxopropyl)pyrrolidin-1-yl)-3-methoxy-5-methyl-1-oxoheptan-4-yl)-2-((S)-2-(dimethylamino)propanamido)-N,3-dimethylbutanamide], the “IC50 (fold difference) T47D” value with T47D cells (setting [2]) was found to be 3.4 fold difference. The “potency compared to the 1,4-NH2 configuration of the P5 moiety in 19 and 26” value in experiment [1] is on record as “more potent”. Also, in experiment [1] (setting [4]), the IC50 is below 5 nM. The “IC50 (fold difference) HCC1954” value in experiment [1] (setting [2]) worked out at 1.8 fold difference.
Turning to `CC[C@H](C)[C@@H]([C@@H](CC(=O)N1CCC[C@H]1[C@H](OC)[C@@H](C)C(=O)N(C)CCc1ccc(N)cc1)OC)N(C)C(=O)[C@@H](NC(=O)[C@H](C(C)C)N(C)C)C(C)C` [Compound 19, (S)-N-((3R,4S,5S)-1-((S)-2-((1R,2R)-3-((4-aminophenethyl)(methyl)amino)-1-methoxy-2-methyl-3-oxopropyl)pyrrolidin-1-yl)-3-methoxy-5-methyl-1-oxoheptan-4-yl)-2-((S)-2-(dimethylamino)-3-methylbutanamido)-N,3-dimethylbutanamide], the “IC50 (fold difference) T47D” value was 3.8 fold difference with T47D cells (setting [2]) and 6.9 fold difference with T47D cells (setting [3]). Further, the IC50 in experiment [1] (setting [4]) is below 5 nM. Further, the entries for the “IC50 (fold difference) HCC1954” value in experiment [1] (setting [2]) and in experiment [1] (setting [3]) were 2.1 fold difference and 2.3 fold difference, respectively.
On to `CC[C@H](C)[C@@H]([C@@H](CC(=O)N1CCC[C@H]1[C@H](OC)[C@@H](C)C(=O)NCCc1cccc(N)c1)OC)N(C)C(=O)[C@@H](NC(=O)[C@H](C(C)C)N(C)C)C(C)C` [Compound 20, (S)-N-((3R,4S,5S)-1-((S)-2-((1R,2R)-3-((3-aminophenethyl)amino)-1-methoxy-2-methyl-3-oxopropyl)pyrrolidin-1-yl)-3-methoxy-5-methyl-1-oxoheptan-4-yl)-2-((S)-2-(dimethylamino)-3-methylbutanamido)-N,3-dimethylbutanamide], for which the “IC50 (fold difference) T47D” value in the experiment with T47D cells (setting [3]) came out at 1 fold difference. In experiment [1] (setting [3]), the “IC50 (fold difference) HCC1954” value stood at 1 fold difference.
Turning to `CC[C@H](C)[C@@H]([C@@H](CC(=O)N1CCC[C@H]1[C@H](OC)[C@@H](C)C(=O)NCCc1ccccc1N)OC)N(C)C(=O)[C@@H](NC(=O)[C@H](C(C)C)N(C)C)C(C)C` [Compound 21, (S)-N-((3R,4S,5S)-1-((S)-2-((1R,2R)-3-((2-aminophenethyl)amino)-1-methoxy-2-methyl-3-oxopropyl)pyrrolidin-1-yl)-3-methoxy-5-methyl-1-oxoheptan-4-yl)-2-((S)-2-(dimethylamino)-3-methylbutanamido)-N,3-dimethylbutanamide], the “IC50 (fold difference) T47D” value in the experiment on T47D cells (setting [3]) was 1 fold difference. In experiment [1] (setting [3]), the “IC50 (fold difference) HCC1954” value is on record as 1 fold difference.
As for `CC[C@H](C)[C@@H]([C@@H](CC(=O)N1CCC[C@H]1[C@H](OC)[C@@H](C)C(=O)NCCc1ccc(N)cc1)OC)N(C)C(=O)[C@@H](NC(=O)[C@H](C(C)C)N(C)C)C(C)C` [Compound 22, (S)-N-((3R,4S,5S)-1-((S)-2-((1R,2R)-3-((4-aminophenethyl)amino)-1-methoxy-2-methyl-3-oxopropyl)pyrrolidin-1-yl)-3-methoxy-5-methyl-1-oxoheptan-4-yl)-2-((S)-2-(dimethylamino)-3-methylbutanamido)-N,3-dimethylbutanamide], in the experiment with T47D cells (setting [3]), the “IC50 (fold difference) T47D” value worked out at 1 fold difference. Also, in experiment [1] (setting [3]), the “IC50 (fold difference) HCC1954” value is 1 fold difference.
For `CC[C@H](C)[C@@H]([C@@H](CC(=O)N1CCC[C@H]1[C@H](OC)[C@@H](C)C(=O)N(C)CCc1ccc(N)cc1)OC)N(C)C(=O)[C@@H](NC(=O)[C@H](C)N(C)C)C(C)C` [Compound 26, (S)-N-((3R,4S,5S)-1-((S)-2-((1R,2R)-3-((4-aminophenethyl)(methyl)amino)-1-methoxy-2-methyl-3-oxopropyl)pyrrolidin-1-yl)-3-methoxy-5-methyl-1-oxoheptan-4-yl)-2-((S)-2-(dimethylamino)propanamido)-N,3-dimethylbutanamide], the “IC50 (fold difference) T47D” value in the experiment on T47D cells (setting [2]) came out at 12.7 fold difference. For the same compound, in experiment [1] (setting [4]), the IC50 was in the range of 5 to 10 nM. Moreover, in experiment [1] (setting [2]), the “IC50 (fold difference) HCC1954” value is given as 4.2 fold difference.
In the case of `CC[C@H](C)[C@@H]([C@@H](CC(=O)N1CCC[C@H]1[C@H](OC)[C@@H](C)C(=O)N(C)CCc1cccc(NC(=O)[C@H](C)NC(=O)[C@H](C)NC(=O)CN2C(=O)C=CC2=O)c1)OC)N(C)C(=O)[C@@H](NC(=O)[C@H]1CCCN1C)C(C)C` [Compound 37, (R)-N-((S)-1-(((3R,4S,5S)-1-((S)-2-((IR,2R)-3-((3-((S)-2-((S)-2-(2-(2,5-dioxo-2,5-dihydro-1H-pyrrol-1-yl)acetamido)propanamido)propanamido)phenethyl)(methyl)amino)-1-methoxy-2-methyl-3-oxopropyl)pyrrolidin-1-yl)-3-methoxy-5-methyl-1-oxoheptan-4-yl)(methyl)amino)-3-methyl-1-oxobutan-2-yl)-1-methylpyrrolidine-2-carboxamide 2,2,2-trifluoroacetate], the IC50 in experiment [1] (setting [5]) is below 5 nM.
Still for that read-out and setting: the figure for `CC[C@H](C)[C@@H]([C@@H](CC(=O)N1CCC[C@H]1[C@H](OC)[C@@H](C)C(=O)N(C)CCc1cccc(NC(=O)[C@H](C)NC(=O)[C@H](C)NC(=O)CN2C(=O)C=CC2=O)c1)OC)N(C)C(=O)[C@@H](NC(=O)C(C)(C)CN(C)C)C(C)C` [Compound 38, (S)-2-(3-(dimethylamino)-2,2-dimethylpropanamido)-N-((3R,4S,5S)-1-((S)-2-((1R,2R)-3-((3-((S)-2-((S)-2-(2-(2,5-dioxo-2,5-dihydro-1H-pyrrol-1-yl)acetamido)propanamido)propanamido)phenethyl)(methyl)amino)-1-methoxy-2-methyl-3-oxopropyl)pyrrolidin-1-yl)-3-methoxy-5-methyl-1-oxoheptan-4-yl)-N,3-dimethylbutanamide 2,2,2-trifluoroacetate] is above 10 nM.
With `CC[C@H](C)[C@@H]([C@@H](CC(=O)N1CCC[C@H]1[C@H](OC)[C@@H](C)C(=O)N[C@@H](Cc1ccccc1)c1nccs1)OC)N(C)C(=O)[C@@H](NC(=O)[C@H](C(C)C)N(C)C)C(C)C` [Dolastatin 10, dolastatin 10, reference compound], the “IC50[N—Me amide]/IC50[NH-amide]” value in experiment [1] (HCC1954 5-Day Assay, N-methylation of the amide between P4 and P5) came to 240.
